Laboratory results reported in patent US20120196791A1, “COMBINATION THERAPIES USING ANTIBACTERIAL AMINOGLYCOSIDE COMPOUNDS” (Achaogen, Inc., priority 2009, published 2012).
Read-outs that look alike come from different tables or passages of the source. Each block holds one molecule with its values, some of them ahead of it.

What was measured:
Assay type in all cases: cell-based
P. aeruginosa strains [1] = assay: MIC by macrodilution
Text: (§1) “MIC”, which stands for minimum inhibitory concentration, refers to that concentration, in μg/mL, of a compound of this invention that inhibits the growth and/or proliferation of a strain of bacteria by at least 80% compared to an untreated control as determined by visual inspection of a liquid culture.
Synergy time-kill was used to test the activity of Example 1, alone and in combination with cefepime, doripenem, imipenem and piperacillin/tazobactam, against 10 P. aeruginosa strains. The 10 clinical isolates included 5 cefepime resistant, 5 doripenem resistant, 8 imipenem resistant, and 9 piperacillin/tazobactam resistant strains. MICs were determined by macrodilution and time-kill was used to verify the activity of all five agents alone. MICs were predetermined by macrodilution in cation-adjusted Mueller-Hinton broth (BBL Microbiology Systems, Cockeysville, Md.) according to standard methodology. All strains were tested by time-kill methodology with each compound alone according to standard methods. Strains were examined by PCR for genes encoding aminoglycoside modifying enzymes (AMEs). Cultures were initiated by adding 35-μL aliquots of suspensions into 5 mL of broth. Viability counts (100-μL aliquots) in synergy tests were performed at 0, 3, 6, 12, and 24 h in a shaking water bath at 35° C. with final inocula of between 5×10^5 and 5×10^6 CFU/mL. Only plates with 30 to 300 colonies were counted.

S. aureus strains = assay: MIC by macrodilution
Text: as §1
Synergy time-kill was used to test the activity of Example 1, alone and in combination with daptomycin (DAP), ceftobiprole (BPR), and linezolid (LZD), against 25 S. aureus strains. 25 clinical isolates included 2 hVISA, 2 VISA, and 5 VRSA, 10 hospital acquired and 6 community acquired MRSA strains. MICs were determined by macrodilution and time-kill was used to verify the activity of all four agents alone. MICs were predetermined by macrodilution in cation-adjusted Mueller-Hinton broth (BBL Microbiology Systems, Cockeysville, Md.) according to standard methodology. Daptomycin susceptibility testing was performed in Mueller-Hinton broth adjusted to 50 μg/mL of calcium according to standard methodology. All strains were tested by time-kill methodology with each compound alone according to standard methods. Cultures were initiated by adding 35-μL aliquots of suspensions into 5 mL of broth. Viability counts (100-μL aliquots) in synergy tests were performed at 0, 3, 6, 12, and 24 h in a shaking water bath at 35° C. with final inocula of between 5×10^5 and 5×10^6 CFU/mL. Only plates with 30 to 300 colonies were counted.

P. aeruginosa strains [2] = assay: Synergy time-kill; details: with each drug tested, majority of isolates, 24 h
[3] = Pseudomonas aeruginosa, Strain 1, read-out: MIC
[4] = Pseudomonas aeruginosa, Strain 2, read-out: MIC
[5] = Pseudomonas aeruginosa, Strain 3, read-out: MIC
[6] = Pseudomonas aeruginosa, Strain 4, read-out: MIC
[7] = Pseudomonas aeruginosa, Strain 5, read-out: MIC
[8] = Pseudomonas aeruginosa, Strain 6, read-out: MIC
[9] = Pseudomonas aeruginosa, Strain 7, read-out: MIC
[10] = Pseudomonas aeruginosa, Strain 8, read-out: MIC
[11] = Pseudomonas aeruginosa, Strain 9, read-out: MIC
[12] = Pseudomonas aeruginosa, range over 10 P. aeruginosa strains, read-out: MICs of each agent alone

- MIC (P. aeruginosa strains [1]; [3]): 8 µg/mL
- MIC (P. aeruginosa strains [1]; [4]): 2 µg/mL
- MIC (P. aeruginosa strains [1]; [5]): 8 µg/mL
- MIC (P. aeruginosa strains [1]; [6]): 16 µg/mL
- MIC (P. aeruginosa strains [1]; [7]): 32 µg/mL
- MIC (P. aeruginosa strains [1]; [8]): 0.25 µg/mL
- MIC (P. aeruginosa strains [1]; [9]): 4 µg/mL
- MIC (P. aeruginosa strains [1]; [10]): 4 µg/mL
- MIC (P. aeruginosa strains [1]; [11]): 32 µg/mL
- MIC (P. aeruginosa strains [1]; Pseudomonas aeruginosa, Strain 10, read-out: MIC): 32 µg/mL
- MIC (P. aeruginosa strains [1]; [12]): 0.25 to 32 µg/mL
SMILES: C[C@@H](O)[C@H]1C(=O)N2C(C(=O)O)=C(SCCN=CN)C[C@H]12 [Imipenem, imipenem]

SMILES: CN[C@@H]1[C@@H](O)[C@@H](O[C@@H]2[C@@H](O)[C@H](O[C@H]3OC(CNCCO)=CC[C@H]3N)[C@@H](N)C[C@H]2NC(=O)[C@@H](O)CCN)OC[C@]1(C)O [Example 1, 6′-(2-Hydroxy-ethyl)-1-(4-amino-2(S)-hydroxy-butyryl)-sisomicin]
- MIC (S. aureus strains; Strain 1, VRSA): 1.0 µg/mL
- MIC (S. aureus strains; Strain 2, VRSA): 0.5 µg/mL
- MIC (S. aureus strains; Strain 3, VRSA): 1.0 µg/mL
- MIC (S. aureus strains; Strain 4, VRSA): 2.0 µg/mL
- MIC (S. aureus strains; Strain 5, VRSA): 1.0 µg/mL
- MIC (S. aureus strains; Strain 6, CA-MRSA, PVL+): 4.0 µg/mL
- MIC (S. aureus strains; Strain 7, CA-MRSA, PVL+): 2.0 µg/mL
- MIC (S. aureus strains; Strain 8, CA-MRSA, PVL+): 4.0 µg/mL
- MIC (S. aureus strains; Strain 9, hVISA): 1.0 µg/mL
- MIC (S. aureus strains; Strain 10, hVISA): 1.0 µg/mL
- MIC (S. aureus strains; Strain 11, VISA): 4.0 µg/mL
- MIC (S. aureus strains; Strain 12, VISA): 4.0 µg/mL
- MIC (S. aureus strains; Strain 13, ATCC33591 HA-MRSA): 8.0 µg/mL
- MIC (S. aureus strains; Strain 14, HA-MRSA): 2.0 µg/mL
- MIC (S. aureus strains; Strain 15, HA-MRSA): 2.0 µg/mL
- MIC (S. aureus strains; Strain 16, HA-MRSA): 2.0 µg/mL
- MIC (S. aureus strains; Strain 17, HA-MRSA): 4.0 µg/mL
- MIC (S. aureus strains; Strain 18, HA-MRSA): 2.0 µg/mL
- MIC (S. aureus strains; Strain 19, HA-MRSA): 2.0 µg/mL
- MIC (S. aureus strains; Strain 20, HA-MRSA): 2.0 µg/mL
- MIC (S. aureus strains; Strain 21, HA-MRSA): 4.0 µg/mL
- MIC (S. aureus strains; Strain 22, HA-MRSA): 4.0 µg/mL
- MIC (S. aureus strains; Strain 23, CA-MRSA PVL+): 4.0 µg/mL
- MIC (S. aureus strains; Strain 24, CA-MRSA PVL+): 4.0 µg/mL
- MIC (S. aureus strains; Strain 25, CA-MRSA PVL neg): 2.0 µg/mL
- MICs of each agent alone (S. aureus strains; range over 25 S. aureus strains): 0.5 to 8 µg/mL
- MICs for strains with genes encoding AMEs (P. aeruginosa strains [1]; 3 strains: 2 ant(2″)-Ia, 1 aac(6′)-Ib): equivalent to strains lacking AMEs
- MIC (P. aeruginosa strains [1]; Strain 1): 64 µg/mL
- MIC (P. aeruginosa strains [1]; Strain 2): 16 µg/mL
- MIC (P. aeruginosa strains [1]; Strain 3): 16 µg/mL
- MIC (P. aeruginosa strains [1]; Strain 4): 16 µg/mL
- MIC (P. aeruginosa strains [1]; Strain 5): 32 µg/mL
- MIC (P. aeruginosa strains [1]; Strain 6): 8 µg/mL
- MIC (P. aeruginosa strains [1]; Strain 7): 16 µg/mL
- MIC (P. aeruginosa strains [1]; Strain 8): 16 µg/mL
- MIC (P. aeruginosa strains [1]; Strain 9): 16 µg/mL
- MIC (P. aeruginosa strains [1]; Strain 10): 32 µg/mL
- MICs of each agent alone (P. aeruginosa strains [1]; range over 10 P. aeruginosa strains): 8 to 64 µg/mL
- Example 1 concentration yielding synergy (P. aeruginosa strains [2]): ¼

SMILES: CO/N=C(\C(=O)N[C@@H]1C(=O)N2C(C(=O)[O-])=C(C[N+]3(C)CCCC3)CS[C@H]12)c1csc(N)n1 [Cefepime, cefepime]
- MIC (P. aeruginosa strains [1]; Pseudomonas aeruginosa): 256 µg/mL
- MIC (P. aeruginosa strains [1]; [3]): 16 µg/mL
- MIC (P. aeruginosa strains [1]; [4]): 4 µg/mL
- MIC (P. aeruginosa strains [1]; [5]): 8 µg/mL
- MIC (P. aeruginosa strains [1]; [6]): 8 µg/mL
- MIC (P. aeruginosa strains [1]; [7]): 32 µg/mL
- MIC (P. aeruginosa strains [1]; [8]): 1 µg/mL
- MIC (P. aeruginosa strains [1]; [9]): 16 µg/mL
- MIC (P. aeruginosa strains [1]; [10]): 4 µg/mL
- MIC (P. aeruginosa strains [1]; [11]): 32 µg/mL
- MIC (P. aeruginosa strains [1]; [12]): 1 to 256 µg/mL

- MIC (S. aureus strains; Staphylococcus aureus, ATCC 33591 / MRSA, Strain 13, ATCC33591 HA-MRSA, read-out: MIC): 2 µg/mL
- MIC (S. aureus strains; Staphylococcus aureus, MRSA, Strain 6, CA-MRSA, PVL+, read-out: MIC): 1 µg/mL
- MIC (S. aureus strains; Staphylococcus aureus, MRSA, Strain 7, CA-MRSA, PVL+, read-out: MIC): 1 µg/mL
- MIC (S. aureus strains; Staphylococcus aureus, MRSA, Strain 8, CA-MRSA, PVL+, read-out: MIC): 1 µg/mL
- MIC (S. aureus strains; Staphylococcus aureus, MRSA, Strain 14, HA-MRSA, read-out: MIC): 2 µg/mL
- MIC (S. aureus strains; Staphylococcus aureus, MRSA, Strain 15, HA-MRSA, read-out: MIC): 1 µg/mL
- MIC (S. aureus strains; Staphylococcus aureus, MRSA, Strain 16, HA-MRSA, read-out: MIC): 2 µg/mL
- MIC (S. aureus strains; Staphylococcus aureus, MRSA, Strain 17, HA-MRSA, read-out: MIC): 2 µg/mL
- MIC (S. aureus strains; Staphylococcus aureus, MRSA, Strain 18, HA-MRSA, read-out: MIC): 1 µg/mL
- MIC (S. aureus strains; Staphylococcus aureus, MRSA, Strain 19, HA-MRSA, read-out: MIC): 1 µg/mL
- MIC (S. aureus strains; Staphylococcus aureus, MRSA, Strain 20, HA-MRSA, read-out: MIC): 2 µg/mL
- MIC (S. aureus strains; Staphylococcus aureus, MRSA, Strain 21, HA-MRSA, read-out: MIC): 1 µg/mL
- MIC (S. aureus strains; Staphylococcus aureus, MRSA, Strain 22, HA-MRSA, read-out: MIC): 2 µg/mL
- MIC (S. aureus strains; Staphylococcus aureus, MRSA, Strain 23, CA-MRSA PVL+, read-out: MIC): 1 µg/mL
- MIC (S. aureus strains; Staphylococcus aureus, MRSA, Strain 24, CA-MRSA PVL+, read-out: MIC): 1 µg/mL
- MIC (S. aureus strains; Staphylococcus aureus, MRSA, Strain 25, CA-MRSA PVL neg, read-out: MIC): 2 µg/mL
- MIC (S. aureus strains; Staphylococcus aureus, Strain 9, hVISA, read-out: MIC): 2 µg/mL
- MIC (S. aureus strains; Staphylococcus aureus, Strain 10, hVISA, read-out: MIC): 2 µg/mL
- MIC (S. aureus strains; Staphylococcus aureus, VISA, Strain 11, VISA, read-out: MIC): 1 µg/mL
- MIC (S. aureus strains; Staphylococcus aureus, VISA, Strain 12, VISA, read-out: MIC): 0.5 µg/mL
- MIC (S. aureus strains; Staphylococcus aureus, VRSA, Strain 1, VRSA, read-out: MIC): 1 µg/mL
- MIC (S. aureus strains; Staphylococcus aureus, VRSA, Strain 2, VRSA, read-out: MIC): 1 µg/mL
- MIC (S. aureus strains; Staphylococcus aureus, VRSA, Strain 3, VRSA, read-out: MIC): 2 µg/mL
- MIC (S. aureus strains; Staphylococcus aureus, VRSA, Strain 4, VRSA, read-out: MIC): 2 µg/mL
- MIC (S. aureus strains; Staphylococcus aureus, VRSA, Strain 5, VRSA, read-out: MIC): 0.5 µg/mL
- MIC (S. aureus strains; Staphylococcus aureus, range over 25 S. aureus strains, read-out: MICs of each agent alone): 0.5 to 2 µg/mL
SMILES: Nc1nc(/C(=N/O)C(=O)N[C@@H]2C(=O)N3C(C(=O)O)=C(/C=C4\CCN([C@@H]5CCNC5)C4=O)CS[C@H]23)ns1 [Ceftobiprole, ceftobiprole]
